Measurements taken from ChEMBL document CHEMBL4507317, “Data for DCP probe BAY-899” (2021).

Legend:
[1] = target: Cyclin-dependent kinase 13 (Homo sapiens) (UniProt Q14004); conditions: Compound concentration 1000.0 nM
[2] = target: Serine/threonine-protein kinase SIK1 (Homo sapiens) (UniProt P57059); conditions: Compound concentration 1000.0 nM
[3] = target: Glycogen synthase kinase-3 beta (Homo sapiens) (UniProt P49841); conditions: Compound concentration 1000.0 nM
[4] = target: Serine/threonine-protein kinase TNNI3K (Homo sapiens) (UniProt Q59H18); conditions: Compound concentration 1000.0 nM
[5] = target: Ephrin type-A receptor 1 (Homo sapiens) (UniProt P21709); conditions: Compound concentration 1000.0 nM
[6] = target: Ephrin type-A receptor 6 (Homo sapiens) (UniProt Q9UF33); conditions: Compound concentration 1000.0 nM
[7] = target: Tyrosine-protein kinase Yes (Homo sapiens) (UniProt P07947); conditions: Compound concentration 1000.0 nM
[8] = target: Casein kinase I isoform alpha-like (Homo sapiens) (UniProt Q8N752); conditions: Compound concentration 1000.0 nM
Chain of Casein kinase I isoform alpha-like (Homo sapiens) (Q8N752 whole entry, canonical isoform): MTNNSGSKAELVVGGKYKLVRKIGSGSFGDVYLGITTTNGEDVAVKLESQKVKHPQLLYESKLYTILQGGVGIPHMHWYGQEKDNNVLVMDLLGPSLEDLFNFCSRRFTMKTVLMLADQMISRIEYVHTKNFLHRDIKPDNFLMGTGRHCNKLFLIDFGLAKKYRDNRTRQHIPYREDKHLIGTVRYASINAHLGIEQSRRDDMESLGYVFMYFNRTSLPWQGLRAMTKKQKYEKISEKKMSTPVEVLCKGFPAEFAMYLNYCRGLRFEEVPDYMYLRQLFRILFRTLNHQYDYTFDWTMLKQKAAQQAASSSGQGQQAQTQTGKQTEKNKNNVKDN

[9] = target: Ribosomal protein S6 kinase alpha-4 (Homo sapiens) (UniProt O75676); conditions: Compound concentration 1000.0 nM
[10] = target: MAP kinase-interacting serine/threonine-protein kinase 1 (Homo sapiens) (UniProt Q9BUB5); conditions: Compound concentration 1000.0 nM
Chain of MAP kinase-interacting serine/threonine-protein kinase 1 (Homo sapiens) (Q9BUB5 whole entry, looked up): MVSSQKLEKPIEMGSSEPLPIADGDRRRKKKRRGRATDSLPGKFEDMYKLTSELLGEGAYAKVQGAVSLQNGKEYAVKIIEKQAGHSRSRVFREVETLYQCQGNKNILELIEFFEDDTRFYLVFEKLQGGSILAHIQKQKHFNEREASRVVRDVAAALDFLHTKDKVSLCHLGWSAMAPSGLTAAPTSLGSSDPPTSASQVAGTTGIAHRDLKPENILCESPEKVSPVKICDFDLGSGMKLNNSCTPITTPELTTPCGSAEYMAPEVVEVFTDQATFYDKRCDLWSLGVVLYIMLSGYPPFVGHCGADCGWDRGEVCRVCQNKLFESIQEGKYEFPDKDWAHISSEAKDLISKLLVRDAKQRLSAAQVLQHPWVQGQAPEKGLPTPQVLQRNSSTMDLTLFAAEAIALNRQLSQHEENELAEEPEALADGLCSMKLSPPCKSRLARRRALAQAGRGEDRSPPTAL

[11] = target: Mitogen-activated protein kinase 13 (Homo sapiens) (UniProt O15264); conditions: Compound concentration 1000.0 nM
Chain of Mitogen-activated protein kinase 13 (Homo sapiens) (O15264 whole entry): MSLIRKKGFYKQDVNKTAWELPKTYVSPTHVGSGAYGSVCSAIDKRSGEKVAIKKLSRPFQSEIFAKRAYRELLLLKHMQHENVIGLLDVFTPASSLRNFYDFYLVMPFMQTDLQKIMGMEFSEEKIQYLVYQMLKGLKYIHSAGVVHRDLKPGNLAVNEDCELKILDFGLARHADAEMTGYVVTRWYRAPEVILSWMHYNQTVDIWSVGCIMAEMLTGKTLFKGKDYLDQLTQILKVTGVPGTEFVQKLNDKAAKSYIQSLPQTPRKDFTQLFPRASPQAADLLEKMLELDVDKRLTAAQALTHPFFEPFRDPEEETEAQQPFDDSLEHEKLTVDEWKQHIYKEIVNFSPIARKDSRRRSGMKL

[12] = target: Serine/threonine-protein kinase RIO2 (Homo sapiens) (UniProt Q9BVS4); conditions: Compound concentration 1000.0 nM
[13] = target: Serine/threonine-protein kinase PLK2 (Homo sapiens) (UniProt Q9NYY3); conditions: Compound concentration 1000.0 nM
[14] = target: Histamine H3 receptor (Homo sapiens) (UniProt Q9Y5N1); conditions: Compound concentration 10.0 uM
[15] = target: Serine/threonine-protein kinase PRP4 homolog (Homo sapiens) (UniProt Q13523); conditions: Compound concentration 1000.0 nM
[16] = tested on: ALK tyrosine kinase receptor (Homo sapiens), Q9UM73 [L1196M]; conditions: Compound concentration 1000.0 nM
Chain of ALK tyrosine kinase receptor (Homo sapiens), Q9UM73 [L1196M] (Q9UM73 whole entry L1196M, looked up): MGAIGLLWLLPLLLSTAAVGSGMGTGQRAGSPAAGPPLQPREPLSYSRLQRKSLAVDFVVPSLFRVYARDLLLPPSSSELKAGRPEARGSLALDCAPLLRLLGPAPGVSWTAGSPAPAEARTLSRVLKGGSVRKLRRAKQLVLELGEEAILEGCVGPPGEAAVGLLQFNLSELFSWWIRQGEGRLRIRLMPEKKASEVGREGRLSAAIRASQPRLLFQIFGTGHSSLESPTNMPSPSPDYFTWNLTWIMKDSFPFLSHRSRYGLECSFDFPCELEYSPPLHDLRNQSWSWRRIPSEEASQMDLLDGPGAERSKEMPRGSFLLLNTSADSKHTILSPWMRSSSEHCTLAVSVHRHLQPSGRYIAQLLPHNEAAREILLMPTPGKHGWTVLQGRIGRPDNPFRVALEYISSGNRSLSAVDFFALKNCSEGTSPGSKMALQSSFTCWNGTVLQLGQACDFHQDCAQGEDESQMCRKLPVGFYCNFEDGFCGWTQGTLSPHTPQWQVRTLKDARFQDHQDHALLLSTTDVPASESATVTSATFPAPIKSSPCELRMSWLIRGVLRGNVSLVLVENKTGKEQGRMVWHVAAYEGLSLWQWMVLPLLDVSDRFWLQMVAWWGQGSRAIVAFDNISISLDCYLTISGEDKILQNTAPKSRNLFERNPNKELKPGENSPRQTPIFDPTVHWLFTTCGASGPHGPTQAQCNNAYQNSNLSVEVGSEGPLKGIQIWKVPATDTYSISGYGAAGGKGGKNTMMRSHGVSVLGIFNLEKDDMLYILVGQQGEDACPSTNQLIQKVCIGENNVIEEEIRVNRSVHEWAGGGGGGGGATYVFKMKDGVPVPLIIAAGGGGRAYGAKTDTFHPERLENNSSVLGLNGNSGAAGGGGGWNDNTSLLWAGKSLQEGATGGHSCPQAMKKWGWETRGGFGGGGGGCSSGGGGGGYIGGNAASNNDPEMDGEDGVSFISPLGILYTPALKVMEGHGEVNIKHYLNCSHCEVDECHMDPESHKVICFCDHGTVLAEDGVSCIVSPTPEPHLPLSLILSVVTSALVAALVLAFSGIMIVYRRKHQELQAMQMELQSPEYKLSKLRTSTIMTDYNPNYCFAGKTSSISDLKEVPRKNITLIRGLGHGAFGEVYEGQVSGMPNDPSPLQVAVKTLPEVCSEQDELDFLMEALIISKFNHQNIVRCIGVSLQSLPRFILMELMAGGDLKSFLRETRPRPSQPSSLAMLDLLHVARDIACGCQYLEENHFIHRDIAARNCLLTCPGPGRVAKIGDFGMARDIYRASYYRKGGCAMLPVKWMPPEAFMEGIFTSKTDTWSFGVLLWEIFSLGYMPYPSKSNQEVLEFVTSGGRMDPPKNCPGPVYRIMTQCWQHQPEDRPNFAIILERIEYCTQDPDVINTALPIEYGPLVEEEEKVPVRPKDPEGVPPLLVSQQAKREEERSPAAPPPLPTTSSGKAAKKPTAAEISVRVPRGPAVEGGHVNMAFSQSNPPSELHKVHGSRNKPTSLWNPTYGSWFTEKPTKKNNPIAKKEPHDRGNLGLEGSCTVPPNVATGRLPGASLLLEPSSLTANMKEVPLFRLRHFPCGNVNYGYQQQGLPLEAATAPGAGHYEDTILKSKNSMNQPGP

[17] = target: Casein kinase II subunit alpha (Homo sapiens) (UniProt P68400); conditions: Compound concentration 1000.0 nM
[18] = target: Serine/threonine-protein kinase MRCK alpha (Homo sapiens) (UniProt Q5VT25); conditions: Compound concentration 1000.0 nM
Chain of Serine/threonine-protein kinase MRCK alpha (Homo sapiens) (Q5VT25 whole entry): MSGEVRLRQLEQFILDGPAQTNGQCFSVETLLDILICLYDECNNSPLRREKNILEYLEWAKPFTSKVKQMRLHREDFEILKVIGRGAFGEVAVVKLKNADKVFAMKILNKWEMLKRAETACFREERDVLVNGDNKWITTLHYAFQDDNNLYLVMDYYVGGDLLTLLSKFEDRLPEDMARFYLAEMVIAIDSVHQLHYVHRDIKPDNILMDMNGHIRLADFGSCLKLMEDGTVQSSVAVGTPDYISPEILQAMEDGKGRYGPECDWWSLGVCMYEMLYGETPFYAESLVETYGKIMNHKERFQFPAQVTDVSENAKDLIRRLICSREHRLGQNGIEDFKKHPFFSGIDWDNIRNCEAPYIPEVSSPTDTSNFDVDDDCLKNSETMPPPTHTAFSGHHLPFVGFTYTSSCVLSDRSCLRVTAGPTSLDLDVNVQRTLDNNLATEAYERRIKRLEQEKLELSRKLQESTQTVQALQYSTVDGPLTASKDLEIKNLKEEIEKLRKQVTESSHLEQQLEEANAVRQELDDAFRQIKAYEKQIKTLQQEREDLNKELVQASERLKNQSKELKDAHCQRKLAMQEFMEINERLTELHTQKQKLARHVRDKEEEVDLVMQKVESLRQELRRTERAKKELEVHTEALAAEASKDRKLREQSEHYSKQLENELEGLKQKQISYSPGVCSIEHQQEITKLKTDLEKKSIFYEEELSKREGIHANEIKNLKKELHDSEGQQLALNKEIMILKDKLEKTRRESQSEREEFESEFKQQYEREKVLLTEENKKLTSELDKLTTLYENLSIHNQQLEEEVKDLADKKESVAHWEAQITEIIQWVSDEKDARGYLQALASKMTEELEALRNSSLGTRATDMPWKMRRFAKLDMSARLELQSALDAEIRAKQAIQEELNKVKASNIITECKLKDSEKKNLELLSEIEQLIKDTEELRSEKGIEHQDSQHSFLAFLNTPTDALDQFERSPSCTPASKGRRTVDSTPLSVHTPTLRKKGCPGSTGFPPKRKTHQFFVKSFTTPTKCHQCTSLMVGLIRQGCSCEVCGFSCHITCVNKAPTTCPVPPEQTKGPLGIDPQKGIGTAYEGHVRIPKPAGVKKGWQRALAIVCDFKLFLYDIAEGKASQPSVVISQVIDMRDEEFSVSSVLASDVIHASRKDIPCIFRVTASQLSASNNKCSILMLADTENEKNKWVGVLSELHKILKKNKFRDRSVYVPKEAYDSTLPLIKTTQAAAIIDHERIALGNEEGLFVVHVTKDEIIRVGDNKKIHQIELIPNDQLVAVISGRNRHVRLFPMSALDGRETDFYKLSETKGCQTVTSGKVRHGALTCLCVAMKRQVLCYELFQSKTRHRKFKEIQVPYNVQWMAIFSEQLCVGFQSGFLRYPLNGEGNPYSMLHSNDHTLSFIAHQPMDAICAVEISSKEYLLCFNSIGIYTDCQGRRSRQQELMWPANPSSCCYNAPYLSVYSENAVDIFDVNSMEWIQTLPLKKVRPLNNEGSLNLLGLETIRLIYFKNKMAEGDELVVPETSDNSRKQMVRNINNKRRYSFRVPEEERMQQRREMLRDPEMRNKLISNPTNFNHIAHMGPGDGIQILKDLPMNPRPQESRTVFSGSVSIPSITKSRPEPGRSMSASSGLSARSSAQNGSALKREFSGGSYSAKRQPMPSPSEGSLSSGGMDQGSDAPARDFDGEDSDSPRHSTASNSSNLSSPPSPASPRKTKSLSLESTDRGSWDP

[19] = target: Serine/threonine-protein kinase PAK 6 (Homo sapiens) (UniProt Q9NQU5); conditions: Compound concentration 1000.0 nM
[20] = target: Serine/threonine-protein kinase MAK (Homo sapiens) (UniProt P20794); conditions: Compound concentration 1000.0 nM
[21] = target: Tyrosine-protein kinase SYK (Homo sapiens) (UniProt P43405); conditions: Compound concentration 1000.0 nM
[22] = target: Serine/threonine-protein kinase OSR1 (Homo sapiens) (UniProt O95747); conditions: Compound concentration 1000.0 nM
[23] = target: Epithelial discoidin domain-containing receptor 1 (Homo sapiens) (UniProt Q08345); conditions: Compound concentration 1000.0 nM
[24] = target: 5-hydroxytryptamine receptor 2B (Homo sapiens, UniProt P41595); conditions: Compound concentration 10.0 uM
[25] = target: Proto-oncogene tyrosine-protein kinase ROS (Homo sapiens) (UniProt P08922); conditions: Compound concentration 1000.0 nM
[26] = tested on: ALK tyrosine kinase receptor (Homo sapiens), Q9UM73 [C1156Y]; conditions: Compound concentration 1000.0 nM
Chain of ALK tyrosine kinase receptor (Homo sapiens), Q9UM73 [C1156Y] (Q9UM73 whole entry C1156Y, looked up): as the sequence (Q9UM73 whole entry L1196M, looked up) above, with C1156Y, M1196L counted along it

[27] = target: Non-receptor tyrosine-protein kinase TYK2 (Homo sapiens) (UniProt P29597); conditions: Compound concentration 1000.0 nM
[28] = target: Serine/threonine-protein kinase Nek7 (Homo sapiens) (UniProt Q8TDX7); conditions: Compound concentration 1000.0 nM
[29] = target: Citron Rho-interacting kinase (Homo sapiens) (UniProt O14578); conditions: Compound concentration 1000.0 nM
[30] = target: Sigma non-opioid intracellular receptor 1 (Homo sapiens, UniProt Q99720); test: GPCRScan assay: inhibition of Sigma 1; design: radioligand conc. used [nm] 4.0 – 5.0, parental cells HEKT
[31] = target: Interferon-induced, double-stranded RNA-activated protein kinase (Homo sapiens) (UniProt P19525); conditions: Compound concentration 1000.0 nM
[32] = target: LIM domain kinase 1 (Homo sapiens) (UniProt P53667); conditions: Compound concentration 1000.0 nM
[33] = target: Serine/threonine-protein kinase Nek1 (Homo sapiens) (UniProt Q96PY6); conditions: Compound concentration 1000.0 nM
[34] = tested on: Mast/stem cell growth factor receptor Kit (Homo sapiens), P10721 [V559D,V654A]; conditions: Compound concentration 1000.0 nM
[35] = target: Cyclin-dependent kinase 4 (Homo sapiens) (UniProt P11802); conditions: Compound concentration 1000.0 nM
[36] = target: Hepatocyte growth factor receptor (Homo sapiens) (UniProt P08581); conditions: Compound concentration 1000.0 nM
[37] = target: Serine/threonine-protein kinase 17A (Homo sapiens) (UniProt Q9UEE5); conditions: Compound concentration 1000.0 nM
[38] = target: Mitotic checkpoint serine/threonine-protein kinase BUB1 (Homo sapiens) (UniProt O43683); conditions: Compound concentration 1000.0 nM
[39] = target: MAP kinase-activated protein kinase 5 (Homo sapiens) (UniProt Q8IW41); conditions: Compound concentration 1000.0 nM
Chain of MAP kinase-activated protein kinase 5 (Homo sapiens) (Q8IW41 whole entry): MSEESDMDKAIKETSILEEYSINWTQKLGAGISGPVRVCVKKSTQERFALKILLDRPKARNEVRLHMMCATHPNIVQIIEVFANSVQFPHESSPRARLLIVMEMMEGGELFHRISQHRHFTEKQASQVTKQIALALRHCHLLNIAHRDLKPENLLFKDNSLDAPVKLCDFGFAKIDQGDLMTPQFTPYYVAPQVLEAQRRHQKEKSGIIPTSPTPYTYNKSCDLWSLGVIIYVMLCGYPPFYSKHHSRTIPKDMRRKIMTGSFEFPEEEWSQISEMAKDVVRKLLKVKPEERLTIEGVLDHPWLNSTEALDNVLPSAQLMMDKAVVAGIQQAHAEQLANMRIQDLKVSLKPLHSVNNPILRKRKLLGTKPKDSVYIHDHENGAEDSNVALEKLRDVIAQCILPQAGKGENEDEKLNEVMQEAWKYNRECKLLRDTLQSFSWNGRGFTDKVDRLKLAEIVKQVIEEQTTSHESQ

[40] = target: Sigma intracellular receptor 2 (Homo sapiens, UniProt Q5BJF2); test: GPCRScan assay: inhibition of Sigma 2; design: radioligand conc. used [nm] 5.0, parental cells HEKT
[41] = target: Phosphatidylinositol 4-phosphate 5-kinase type-1 alpha (Homo sapiens) (UniProt Q99755); conditions: Compound concentration 1000.0 nM
[42] = tested on: Mast/stem cell growth factor receptor Kit (Homo sapiens), P10721 [V559D]; conditions: Compound concentration 1000.0 nM
[43] = target: Mitogen-activated protein kinase kinase kinase 19 (Homo sapiens) (UniProt Q56UN5); conditions: Compound concentration 1000.0 nM
[44] = target: Myosin light chain kinase (Homo sapiens) (UniProt Q32MK0); conditions: Compound concentration 1000.0 nM
[45] = target: Fibroblast growth factor receptor 1 (Homo sapiens) (UniProt P11362); conditions: Compound concentration 1000.0 nM
[46] = target: Casein kinase I isoform epsilon (Homo sapiens) (UniProt P49674); conditions: Compound concentration 1000.0 nM

O=C(Nc1ccc(Oc2ccc(F)cc2)cc1)N1CCc2ncccc2[C@H]1c1ccc(F)cc1 [BAY-897]
active: inhibition [24] 52.4%
2.4 µM: Ki [30]
0.676 µM: Ki [40]
inactive: residual activity [1] 100% | residual activity [2] 99% | residual activity [3] 100% | residual activity [4] 100% | residual activity [5] 100% | residual activity [6] 100% | residual activity [7] 100% | residual activity [8] 92% | residual activity [9] 73% | residual activity [10] 95% | residual activity [11] 96% | residual activity [12] 94% | residual activity [13] 100% | inhibition [14] 3.57% | residual activity [15] 100% | residual activity [16] 100% | residual activity [17] 99% | residual activity [18] 94% | residual activity [19] 100% | residual activity [20] 100% | residual activity [21] 91% | residual activity [22] 90% | residual activity [23] 100% | residual activity [25] 76% | residual activity [26] 93% | residual activity [27] 95% | residual activity [28] 82% | residual activity [29] 91% | residual activity [31] 100% | residual activity [32] 85% | residual activity [33] 100% | residual activity [34] 90% | residual activity [35] 96% | residual activity [36] 100% | residual activity [37] 86% | residual activity [38] 98% | residual activity [39] 75% | residual activity [41] 95% | residual activity [42] 100% | residual activity [43] 88% | residual activity [44] 80% | residual activity [45] 100% | residual activity [46] 85%

O=C(Nc1cnc(Oc2ccc(F)cc2)nc1)N1CCc2ncccc2[C@@H]1c1ccc(F)cc1 [BAY-899]
inactive: residual activity [1] 100% | residual activity [2] 88% | residual activity [3] 100% | residual activity [4] 100% | residual activity [5] 100% | residual activity [6] 100% | residual activity [7] 98% | residual activity [8] 82% | residual activity [9] 89% | residual activity [10] 95% | residual activity [11] 100% | residual activity [12] 96% | residual activity [13] 100% | inhibition [14] -8.41% | residual activity [15] 90% | residual activity [16] 100% | residual activity [17] 93% | residual activity [18] 96% | residual activity [19] 100% | residual activity [20] 100% | residual activity [21] 84% | residual activity [22] 93% | residual activity [23] 95% | inhibition [24] 37.6% | residual activity [25] 82% | residual activity [26] 90% | residual activity [27] 97% | residual activity [28] 84% | residual activity [29] 88% | residual activity [31] 73% | residual activity [32] 99% | residual activity [33] 84% | residual activity [34] 84% | residual activity [35] 100% | residual activity [36] 100% | residual activity [37] 85% | residual activity [38] 92% | residual activity [39] 91% | residual activity [41] 100% | residual activity [42] 100% | residual activity [43] 81% | residual activity [44] 89% | residual activity [45] 82% | residual activity [46] 66%
2.05 µM: Ki [40]
1.43 µM: Ki [30]
